Test results published in patent US9254293B2, “Methods and compositions for inhibiting or reducing hair loss, acne, rosacea, prostate cancer, and BPH” (The Trustees of the University of Pennsylvania, priority 2006, dated 2016).
Entries after “also recorded” stand apart in the source; their conditions may differ.

Tested on: wild-type c57/black mice
Test: Topical application of PGD2 to the shaved central back of mice, effect on hair growth
Format: in vivo
Experimental: 25 day-old (corresponding to end of the first telogen stage) wild-type c57/black mice were treated with 200 ng of PGD2 (Cayman Chemicals) diluted in 200 μl of acetone applied to the central back after shaving. Subsequent treatments were performed every 3 days, ending on day 40 For a total of […]. Photographs were taken on day 46 of life, after the end of the 2nd anagen. In the second experiment, mice were shaved and treated with 10 μg of PGD2 dissolved in 200 μl of acetone on days 66 and 69 of life, and then photographed on day #121.

## CCCCC[C@H](O)/C=C/[C@H]1C(=O)C[C@H](O)[C@@H]1C/C=C\CCCC(=O)O [PGD2, prostaglandin D2]
25 day-old mice, 200 ng PGD2 in 200 μl acetone on central back after shaving, every 3 days to day 40 (5 applications), photographed day 46 after end of 2nd anagen
  effect of PGD2 on hair growth (alopecia): baldness (alopecia); also recorded: induced alopecia
Mice shaved, 10 μg PGD2 in 200 μl acetone on days 66 and 69 of life, photographed day 121, over 50 days after the last application
  effect of PGD2 on hair regrowth: prevent hair regrowth
